Measurements from paper PMC11784026, “Phase 1 study of the safety, tolerability, and pharmacokinetics of a synthetic macrocyclic peptide antibiotic (BRII-693) in healthy adult participants” (Antimicrobial Agents and Chemotherapy, 2024).
Where two headings read alike, the source gives them in different places. Where a SMILES comes first, the peptide text is derived from it. Bridges are numbered along the chain shown (N, C = ends). [ ]: non-standard residue; d: D form. The star is where a group is joined. X1 = O=C(c1ccc(Cl)cc1Cl)*; Dab = NCC[C@H](N)C(=O)O; Abu = CC[C@H](N)C(=O)O; Dap = NC[C@H](N)C(=O)O

Assay: Plasma pharmacokinetics after multiple ascending doses (MAD), phase 1
Type: in vivo, human (healthy adult participants)
Conditions: for Vd: read-out: VZ
Protocol: Participants were discharged on day 11.
Plasma and urine PK parameters were summarized for each cohort using descriptive statistics. Analyses using linear models were performed to assess dose proportionality (both single-dose cohorts 1–7 and multiple-dose cohorts 8–10). Dose-linearity of Cmax and AUC across the dose range was assessed by fitting the power model with ln-transformed parameter as response variables and ln-transformed dose (continuous variable) as a fixed effect. For each PK parameter and study phase (SAD or MAD) separately, a pooled estimate (across all dose cohorts) of slope, corresponding 95% confidence interval (CI), and between-subject coefficient of variation (CV) were calculated. Dose proportionality was to be concluded if the 95% CI for the slope spans 1. […] Least square means (LSMs) and difference in LSMs with 90% CI were calculated; these values were then back exponentiated to give the geometric LSM, geometric mean ratio, and 90% CI.

[1] = human, plasma, iv, 100 mg, First q6h dose (day 3), 7-day MAD 100 mg q6h × 7, n = 3, arithmetic mean ± SD
[2] = human, plasma, iv, 100 mg, Last q6h dose (day 9), 7-day MAD 100 mg q6h × 7, n = 6, arithmetic mean ± SD
[3] = human, plasma, iv, 150 mg, First q6h dose (day 1), 14-day MAD 150 mg q6h × 14, Chinese, n = 10, arithmetic mean ± SD
[4] = human, plasma, iv, 150 mg, First q6h dose (day 1), 14-day MAD 150 mg q6h × 14, non-Chinese, n = 10, arithmetic mean ± SD
[5] = human, plasma, iv, 150 mg, First q6h dose (day 3), 7-day MAD 150 mg q6h × 7, n = 5, arithmetic mean ± SD
[6] = human, plasma, iv, 150 mg, Last q6h dose (day 9), 7-day MAD 150 mg q6h × 7, n = 5, arithmetic mean ± SD

CC[C@@H]1NC(=O)[C@@H](CC(C)C)NC(=O)[C@H](CCN)NC(=O)[C@@H](NC(=O)[C@H](CN)NC(=O)[C@@H](NC(=O)[C@H](CCN)NC(=O)c2ccc(Cl)cc2Cl)[C@@H](C)O)CCNC(=O)[C@H]([C@@H](C)O)NC(=O)[C@H](CCN)NC(=O)[C@H](CCN)NC1=O [BRII-693] (X1-[Dab]T[Dap][Dab][Dab][dL][Abu][Dab][Dab]T; lactam 4-C; N-terminus assumed)
Tmax (First q6h dose (day 1), 14-day MAD 150 mg q6h × 14, Chinese, n = 10, median (range)): 1.08 (1.02, 1.12) h
Tmax (First q6h dose (day 1), 14-day MAD 150 mg q6h × 14, non-Chinese, n = 10, median (range)): 1.07 (1.03, 1.25) h
Tmax (First q6h dose (day 3), 7-day MAD 100 mg q6h × 7, n = 6, median (range)): 1.13 (1.08, 1.25) h
t1/2 (First q6h dose (day 3), 7-day MAD 150 mg q6h × 7, n = 5, arithmetic mean ± SD): 2.40 ± 0.21 h
Tmax (First q6h dose (day 3), 7-day MAD 150 mg q6h × 7, n = 5, median (range)): 1.07 (1.02, 1.15) h
ARAUC (accumulation ratio based on AUC) (Last q6h dose (day 9), 7-day MAD 100 mg q6h × 7, n = 6, arithmetic mean ± SD): 1.59 ± 0.14
ARAUC (accumulation ratio based on AUC) (Last q6h dose (day 9), 7-day MAD 150 mg q6h × 7, n = 5, arithmetic mean ± SD): 1.48 ± 0.10
ARAUC (accumulation ratio based on AUC) (Last q6h dose (day 9), 7-day MAD 200 mg q6h × 7, n = 5, arithmetic mean ± SD): 1.69 ± 0.34
ARAUC (accumulation ratio based on AUC) (Last q6h dose (day 14), 14-day MAD 150 mg q6h × 14, Chinese, n = 6, arithmetic mean ± SD): 1.58 ± 0.19
Tmax (Last q6h dose (day 14), 14-day MAD 150 mg q6h × 14, Chinese, n = 6, median (range)): 1.07 (1.05, 1.22) h
ARAUC (accumulation ratio based on AUC) (Last q6h dose (day 14), 14-day MAD 150 mg q6h × 14, non-Chinese, n = 10, arithmetic mean ± SD): 1.58 ± 0.17
Tmax (Last q6h dose (day 14), 14-day MAD 150 mg q6h × 14, non-Chinese, n = 10, median (range)): 1.07 (1.02, 1.10) h
Geometric mean ratio for AUC0-6h, Chinese vs non-Chinese (after the first dose on day 1, 150 mg q6h × 14, 90% CI: 0.966, 1.20): 1.08
Geometric mean ratio for Cmax, Chinese vs non-Chinese (after the first dose on day 1, 150 mg q6h × 14, 90% CI: 0.970, 1.24): 1.10
Geometric mean ratio for AUC0-6h, Chinese vs non-Chinese (after the last dose on Day 14, 150 mg q6h × 14, 90% CI 0.926, 1.25): 1.08
Geometric mean ratio for Cmax, Chinese vs non-Chinese (after the last dose on Day 14, 150 mg q6h × 14, 90% CI 0.935, 1.20): 1.06
Cmax (human, plasma, iv, 100 mg, First q6h dose (day 3), 7-day MAD 100 mg q6h × 7, 1-h IV infusion, plasma, n = 6, arithmetic mean ± SD): 5960 ± 710 ng/mL
clearance [1]: 80.5 mL/min
Vd [1]: 17.1 ± 2.72 L
half-life (human, plasma, iv, 100 mg, First q6h dose (day 3), 7-day MAD 100 mg q6h × 7, n = 6, arithmetic mean ± SD): 2.88 ± 0.5 h
AUC(0-t) (human, plasma, iv, 100 mg, First q6h dose (day 3), 7-day MAD 100 mg q6h × 7, n = 6, arithmetic mean ± SD, read-out: AUC0-6h): 18000 ± 2380 ng·h/mL
clearance [2]: 59.5 mL/min
half-life [2]: 7.58 ± 1.72 h
AUC(0-t) (human, plasma, iv, 100 mg, Last q6h dose (day 9), 7-day MAD 100 mg q6h × 7, n = 6, arithmetic mean ± SD, read-out: AUC0–6h): 28600 ± 4480 ng·h/mL
Vd [2]: 38.4 ± 8.18 L
Tmax (human, plasma, iv, 100 mg, Last q6h dose (day 9), 7-day MAD 100 mg q6h × 7, n = 6, median (range), read-out: Tmax): 1.18 h
Cmax (human, plasma, iv, 100 mg, Last q6h dose (day 9), 7-day MAD 100 mg q6h × 7, plasma, n = 6, arithmetic mean ± SD): 8120 ± 1000 ng/mL
clearance [3]: 77.7 mL/min
half-life [3]: 2.15 ± 0.28 h
AUC(0-t) (human, plasma, iv, 150 mg, First q6h dose (day 1), 14-day MAD 150 mg q6h × 14, Chinese, n = 10, arithmetic mean ± SD, read-out: AUC0-6h): 27300 ± 4140 ng·h/mL
Vd [3]: 14.4 ± 2.93 L
Cmax (human, plasma, iv, 150 mg, First q6h dose (day 1), 14-day MAD 150 mg q6h × 14, Chinese, plasma, n = 10, arithmetic mean ± SD): 10200 ± 1890 ng/mL
clearance [4]: 80 mL/min
half-life [4]: 2.42 ± 0.29 h
AUC(0-t) (human, plasma, iv, 150 mg, First q6h dose (day 1), 14-day MAD 150 mg q6h × 14, non-Chinese, n = 10, arithmetic mean ± SD, read-out: AUC0-6h): 25200 ± 2860 ng·h/mL
Vd [4]: 16.7 ± 2.57 L
Cmax (human, plasma, iv, 150 mg, First q6h dose (day 1), 14-day MAD 150 mg q6h × 14, non-Chinese, plasma, n = 10, arithmetic mean ± SD): 9200 ± 1050 ng/mL
Cmax (human, plasma, iv, 150 mg, First q6h dose (day 3), 7-day MAD 150 mg q6h × 7, 1-h IV infusion, plasma, n = 5, arithmetic mean ± SD): 8690 ± 1240 ng/mL
clearance [5]: 82.3 mL/min
AUC(0-t) (human, plasma, iv, 150 mg, First q6h dose (day 3), 7-day MAD 150 mg q6h × 7, n = 5, arithmetic mean ± SD, read-out: AUC0-6h): 24800 ± 3450 ng·h/mL
Vd [5]: 17.2 ± 3.33 L
clearance [6]: 69.2 mL/min
half-life [6]: 6.76 ± 0.35 h
AUC(0-t) (human, plasma, iv, 150 mg, Last q6h dose (day 9), 7-day MAD 150 mg q6h × 7, n = 5, arithmetic mean ± SD, read-out: AUC0–6h): 36600 ± 4360 ng·h/mL
Vd [6]: 40.9 ± 9.47 L
Tmax (human, plasma, iv, 150 mg, Last q6h dose (day 9), 7-day MAD 150 mg q6h × 7, n = 5, median (range), read-out: Tmax): 1.07 h
